From patent publication US11351178B2, “Selective HDAC6 inhibitors” (ITALFARMACO S.P.A., priority 2017, dated 2022)
Where two headings read alike, the source gives them in different places.

Key:
HDAC1 = biological target: T1, HDAC1 (Homo sapiens, UniProt Q13547); experiment: Enzymatic test HDAC1; assay type: biochemical; details: Table 3
T1 construct: purchased BPS 50051

HDAC11 = biological target: T2, HDAC11 (Homo sapiens, UniProt Q96DB2); experiment: Enzymatic test HDAC11; assay type: biochemical; details: Table 3
T2 construct: purchased BML SE560
T2 sequence (Q96DB2 1-347): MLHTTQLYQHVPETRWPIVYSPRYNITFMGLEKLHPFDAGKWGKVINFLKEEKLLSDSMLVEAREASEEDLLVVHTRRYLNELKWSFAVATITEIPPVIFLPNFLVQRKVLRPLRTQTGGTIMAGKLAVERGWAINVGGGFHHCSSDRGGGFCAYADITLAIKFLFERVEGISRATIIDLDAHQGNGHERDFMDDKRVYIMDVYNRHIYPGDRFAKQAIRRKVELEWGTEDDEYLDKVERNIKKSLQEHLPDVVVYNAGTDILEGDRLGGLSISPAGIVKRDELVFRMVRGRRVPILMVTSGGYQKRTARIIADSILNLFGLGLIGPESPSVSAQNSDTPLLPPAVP
Experimental: (§1) After a period of incubation at 30° C. (incubation times vary for different isoforms and are shown in table 1) 25 μL of solution containing the substrate were added. As substrate, FLUOR DE LYS® deacetylase substrate (Enzo Life Sciences, cat #BML-K1104, FdL), FLUOR DE LYS®-Green substrate (Enzo Life Sciences, cat #BML-K1572 FdL_G) and trifluoroacetyl-L-lysine (Tfal)-2× concentrated solution in 25 mM Tris-HCl, pH 8, 130 mM NaCl 0.05% Tween-20 10% glycerol) were used. Following a reaction period at 30° C.

recombinant human HDAC6 = biological target: T3, recombinant human HDAC6 (Homo sapiens, UniProt Q9UBN7); experiment: Enzymatic screening on recombinant human HDAC6; assay type: biochemical; details: read-out: HDAC6 IC50
T3 sequence (Q9UBN7 1-1215): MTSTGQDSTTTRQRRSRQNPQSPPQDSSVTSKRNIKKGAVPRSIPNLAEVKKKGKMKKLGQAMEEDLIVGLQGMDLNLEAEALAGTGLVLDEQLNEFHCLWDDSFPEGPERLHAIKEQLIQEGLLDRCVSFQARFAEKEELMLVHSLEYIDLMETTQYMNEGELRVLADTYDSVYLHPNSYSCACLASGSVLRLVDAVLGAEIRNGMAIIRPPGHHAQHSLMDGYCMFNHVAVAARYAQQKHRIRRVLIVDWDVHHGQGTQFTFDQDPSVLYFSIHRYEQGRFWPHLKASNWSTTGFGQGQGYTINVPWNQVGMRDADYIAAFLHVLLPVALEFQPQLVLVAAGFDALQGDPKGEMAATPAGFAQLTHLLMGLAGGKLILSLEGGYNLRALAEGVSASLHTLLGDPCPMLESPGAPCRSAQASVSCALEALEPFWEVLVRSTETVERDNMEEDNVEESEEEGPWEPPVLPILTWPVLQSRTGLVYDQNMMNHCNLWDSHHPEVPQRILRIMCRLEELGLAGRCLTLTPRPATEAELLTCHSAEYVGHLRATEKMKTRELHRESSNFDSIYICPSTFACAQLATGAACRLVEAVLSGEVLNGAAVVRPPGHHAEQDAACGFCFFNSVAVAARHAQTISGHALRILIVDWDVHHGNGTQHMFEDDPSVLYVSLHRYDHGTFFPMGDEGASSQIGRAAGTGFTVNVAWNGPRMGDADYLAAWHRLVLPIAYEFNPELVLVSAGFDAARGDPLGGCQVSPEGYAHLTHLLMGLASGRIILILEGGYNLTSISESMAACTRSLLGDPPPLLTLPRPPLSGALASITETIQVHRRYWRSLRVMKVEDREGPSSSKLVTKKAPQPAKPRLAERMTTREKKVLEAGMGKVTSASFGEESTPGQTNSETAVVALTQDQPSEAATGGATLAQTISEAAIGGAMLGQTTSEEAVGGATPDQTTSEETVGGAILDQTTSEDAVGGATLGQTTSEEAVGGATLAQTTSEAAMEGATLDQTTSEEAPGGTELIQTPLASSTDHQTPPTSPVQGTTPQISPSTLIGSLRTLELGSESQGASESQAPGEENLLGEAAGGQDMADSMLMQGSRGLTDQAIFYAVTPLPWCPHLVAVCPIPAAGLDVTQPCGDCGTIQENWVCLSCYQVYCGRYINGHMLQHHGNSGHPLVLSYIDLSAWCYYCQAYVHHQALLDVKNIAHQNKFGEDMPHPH
Procedure, shortened: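 Recombinant human enzyme was incubated with compound at 30 °C for an isoform-dependent time, then substrate (FLUOR DE LYS, FLUOR DE LYS-Green or trifluoroacetyl-L-lysine) was added as a 2× solution in 25 mM Tris-HCl pH 8, 130 mM NaCl, 0.05% Tween-20, 10% glycerol. The deacetylation reaction then proceeded at 30 °C.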

recombinant human HDAC3 = biological target: T4, recombinant human HDAC3 (Homo sapiens, UniProt O15379); experiment: Enzymatic screening on recombinant human HDAC3; assay type: biochemical; details: Table 3
T4 construct: purchased BPS 50003
Experimental: Enzymatic activity on recombinant human HDAC6 and HDAC3 was evaluated (Table 2) for each synthesized compound.
as §1

[1] = tested on: peripheral blood mononuclear cells (PBMCs); experiment: Cytotoxicity on PBMCs (CellTiter 96); assay type: cell-based; details: PBMC, 72 h; read-out: PBMC TOXICITY (72 h)
Procedure, shortened: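 Cells seeded (2×10^4/well for 697, 5×10^5/well for PBMCs); compounds added after 24 h at 1–10000 nM (697) or 1.5–10000 nM (PBMCs) and incubated 72 h. Viability read by CellTiter 96 Aqueous One tetrazolium assay of mitochondrial function.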

[2] = Stability to Phase I metabolism in rat S9 liver fraction; assay type: in vitro ADME; details: after 90 min, 37° C.
Procedure, shortened: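 Compounds were incubated with rat or human liver S9 fraction at 37 °C for up to 90 min. Reactions were quenched on ice with acidified acetonitrile and analysed by HPLC-UV or LC-MS/MS. Percent remaining versus time zero and intrinsic clearance were calculated.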

Stability in rat plasma = assay type: in vitro ADME; details: after 4 hours, 37° C.
Procedure, shortened: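 Compounds incubated at 37° C in rat or human plasma at 50 μM (UV/HPLC) or 1 or 2 μM (LC-MS/MS) for 0–4 h. Reaction stopped with acidified acetonitrile on ice; percent remaining versus initial amount and plasma half-life calculated.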

T4 sequence (O15379 whole entry): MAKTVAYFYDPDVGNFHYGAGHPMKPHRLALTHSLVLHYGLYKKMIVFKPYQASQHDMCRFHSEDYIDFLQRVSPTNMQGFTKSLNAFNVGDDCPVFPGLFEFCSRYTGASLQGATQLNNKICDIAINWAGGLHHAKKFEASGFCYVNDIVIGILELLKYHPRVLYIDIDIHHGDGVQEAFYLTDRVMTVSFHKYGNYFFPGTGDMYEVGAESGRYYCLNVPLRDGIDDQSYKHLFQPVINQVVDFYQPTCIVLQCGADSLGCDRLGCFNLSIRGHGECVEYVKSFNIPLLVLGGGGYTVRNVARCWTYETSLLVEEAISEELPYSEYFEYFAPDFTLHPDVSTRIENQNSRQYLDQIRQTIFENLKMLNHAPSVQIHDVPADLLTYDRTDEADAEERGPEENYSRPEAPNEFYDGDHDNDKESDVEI
T4 sequence (Q9Y618 395-489 partner limits assumed): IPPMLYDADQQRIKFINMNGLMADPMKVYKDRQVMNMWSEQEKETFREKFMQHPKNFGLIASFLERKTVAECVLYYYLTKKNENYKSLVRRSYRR
T1 sequence (Q13547 whole entry): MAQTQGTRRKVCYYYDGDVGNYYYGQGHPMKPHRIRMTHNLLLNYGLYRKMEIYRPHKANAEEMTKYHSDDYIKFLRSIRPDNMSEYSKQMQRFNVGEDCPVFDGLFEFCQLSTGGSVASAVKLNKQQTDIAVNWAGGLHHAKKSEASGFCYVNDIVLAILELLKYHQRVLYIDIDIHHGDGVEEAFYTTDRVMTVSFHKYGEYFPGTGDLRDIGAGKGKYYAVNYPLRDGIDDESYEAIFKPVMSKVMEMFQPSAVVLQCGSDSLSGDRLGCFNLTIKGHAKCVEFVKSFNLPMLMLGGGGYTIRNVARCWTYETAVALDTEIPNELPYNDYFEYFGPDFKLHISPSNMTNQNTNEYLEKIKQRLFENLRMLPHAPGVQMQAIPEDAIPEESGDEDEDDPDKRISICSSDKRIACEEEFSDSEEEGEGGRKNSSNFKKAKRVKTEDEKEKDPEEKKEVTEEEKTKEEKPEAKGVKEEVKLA

Cn1c(Sc2c(F)cc(C(=O)NO)cc2F)nnc1-c1cccs1 [comp. 17, 3,5-difluoro-N-hydroxy-4-((4-methyl-5-(thiophen-2-yl)-4H-1,2,4-triazol-3-yl)thio)benzamide]
IC50 (HDAC1): 3990 nM | IC50 (HDAC11): 2290 nM | IC50 (recombinant human HDAC6; Table 2): 9 nM | IC50 (recombinant human HDAC6; Table 3): 9 nM | IC50 (recombinant human HDAC3): 2830 nM | IC50 [1]: 9000 nM | residual percentage in rat S9 fraction [2]: 71% | residual percentage in rat plasma (Stability in rat plasma): 87%
